From ChEMBL document CHEMBL2146417, “Fluorescent reporters of monoamine transporter distribution and function” (Bioorg Med Chem Lett, 2011) come the findings set out here.

A short description of data set [1]: Octanol-phosphate buffered saline partition coefficient, log K of the compound. The format is physicochemical. The conditions noted are these: for logD: octanol/phosphate buffered saline, read-out: log K.
Data set [2] has as its system HEK293. The data set is described as follows: Binding affinity to human monoamine transporter expressed in HEK293 cells assessed as receptor-mediated compound uptake. Format: cell-based.
Data set [3] in a line: Solubility of the compound in methanol. The format is physicochemical.
For data set [4], the species on record is Gallus gallus. The data set is described as follows: Binding affinity to monoamine transporter in dissociated chick brain stem cells assessed as receptor-mediated compound uptake. Format: cell-based.
Data set [5] is described as follows: Solubility of the compound in DMSO. Format: physicochemical.
The subject of data set [6] is Rattus norvegicus. Description: Toxicity in Sprague-Dawley rat assessed as change in blood pressure at 0.25 mM administered for 30 seconds through polyethylene cannula in carotid artery. Format: organism-based. The conditions noted are these: in vivo, other, 250 µM.
The test system of data set [7] is Rattus norvegicus. The data set is described as follows: Toxicity in Sprague-Dawley rat assessed as prolonged reduction in NRM neurons activity at 0.23 to 1 mM administered for 1 to 3 mins through polyethylene cannula in carotid artery measured immediately post dose. The format is organism-based. The conditions noted are these: in vivo, other, 1000 µM.
Data set [8] is described as follows: Drug uptake in Sprague-Dawley rat blood platelet cells administered through intra-arterial injection by fluorescence microscopy analysis. Format: ADME, cell-based. The conditions noted are these: in vivo, other.
Data set [9] deals with Rattus norvegicus. Description: Toxicity in Sprague-Dawley rat assessed as prolonged reduction in NRM neurons activity at 0.23 to 1 mM administered for 1 to 3 mins through polyethylene cannula in carotid artery measured 30 mins post dose. The format is organism-based. To be noted: in vivo, other, 0.5 h, 1000 µM.
The test system of data set [10] is Rattus norvegicus. The data set is described as follows: Toxicity in Sprague-Dawley rat assessed as change in heart rate at 0.25 mM administered for 30 seconds through polyethylene cannula in carotid artery. The format is organism-based. The conditions noted are these: in vivo, other, 250 µM.
Data set [11] deals with Brain. The data set is described as follows: Drug uptake in Sprague-Dawley rat brain administered through intra-arterial injection by fluorescence microscopy analysis. Format: ADME, tissue-based. The conditions noted are these: in vivo, other.
The test system of data set [12] is MLO-Y4. The data set is described as follows: Binding affinity to monoamine transporter in mouse MLO-Y4 cells assessed as receptor-mediated compound uptake at 20 uM by confocal microscopic analysis in presence of serotonin reuptake inhibitor clomipramine. Format: cell-based.
Data set [13] concerns Rattus norvegicus. Description: Toxicity in Sprague-Dawley rat assessed as change in mean breathing rate at 0.23 to 1 mM administered for 1 to 3 mins through polyethylene cannula in carotid artery measured after 600 seconds. Format: organism-based. To be noted: in vivo, other, 10 min, 1000 µM.
In data set [14] the test system is Rattus norvegicus. The data set is described as follows: Toxicity in Sprague-Dawley rat assessed as change in mean breathing rate at 0.23 to 1 mM administered for 1 to 3 mins through polyethylene cannula in carotid artery measured after 200 to 400 seconds. Format: organism-based. To be noted: in vivo, other, 1000 µM.
Data set [15] relates to Rattus norvegicus. The data set is described as follows: Toxicity in Sprague-Dawley rat assessed as change in mean breathing rate at 0.25 mM administered for 30 seconds through polyethylene cannula in carotid artery. Format: organism-based. To be noted: in vivo, other, 250 µM.

Activity calls are given as the source filed them. The calls are words filed in the database; no cut-off is given here.

For the compound `NCCc1ccc(O)c(O)c1` [DOPAMINE], the logD in data set [1] was -2.38.
Regarding `NCCc1ccc2ccc3cccc4ccc1c2c34`, the logD in data set [1] was determined as 1.42. Also, the outcome in data set [2] and in data set [4] was inactive. Further, the solubility result in data set [3] and in [5] was “soluble” in each case.
For `NCCc1c[nH]c2ccc(O)cc12` [SEROTONIN], the logD in [1] was -1.57.
With `NCCn1cc2c(nc1=O)Nc1ccccc1S2`, the logD in data set [1] is 0.65. Also, the outcome in data set [2] and in data set [4] was Active. Moreover, the solubility result in data set [3] and in [5] was “soluble” in each case.
Regarding `CN[C@H]1CC[C@@H](c2ccc(Cl)c(Cl)c2)c2ccccc21` [SERTRALINE], the “log K” value in [1] (octanol/water) is 1.37.
For `COc1cccc2c(OCCN)cccc12`, in data set [1], the logD is 0.28. Besides, the outcome in data set [2] and in data set [4] was inactive. In addition, the solubility entry in data set [3] and in data set [5] was “soluble” in each case.
Take `NCCc1c2ccccc2cc2ccccc12`: in data set [1], the logD is 1.1. For the same compound, the result in [2] and in [4] was inactive. In addition, the solubility entry in [3] and in data set [5] was “soluble” throughout.
In the case of `NCCN1C(=O)c2cccc3c(N)ccc(c23)C1=O`, the Activity entry in data set [6] is “Non-toxic”; in data set [7], “Toxic”; in data set [9] it was “Non-toxic”; in data set [10], “Non-toxic”; in data set [13], “Non-toxic”; in data set [14], “Non-toxic”. Also, the Activity result in data set [15] is recorded as “Non-toxic”. Moreover, the logD in data set [1] was -0.58. The Drug uptake entry in data set [8] is “Active”; in [11] it was “Not Active”. For the same compound, the outcome in [2] and in [4] was Active. In addition, the solubility entry in data set [3] and in data set [5] was “soluble” each time. The outcome in [12] was inactive.
Regarding `NCCOc1cccc2c(O)cccc12`, in [1], the logD came out at 0.1. The outcome in data set [2] and in data set [4] was inactive. Also, the solubility result in data set [3] and in data set [5] was “soluble” throughout.
